From paper PMC12714728, “VHH antibody loop guides design of a synthetic macrocyclic peptide that potently blocks influenza virus membrane fusion” (npj Viruses, 2025)
Non-standard residues stand in square brackets, D forms with d. Residues, ends and D or L forms follow the SMILES beside them. ξ: configuration not given here. ξhhPhe = NC(CCCc1ccccc1)C(=O)O; dAbu = CC[C@@H](N)C(=O)O

Experiments:
[1] = In vitro cell permeability assay; conditions: pig; for efflux ratio at 120 min, 30 nM / Papp B→A at 120 min, 30 nM: LLC-Parent; for Papp B→A at 120 min, 30 nM: basolateral to apical
P-gp (MDR1) = assay: In vitro cell permeability / P-gp substrate assay; conditions: pig; for Papp A→B at 120 min, 30 nM: LLC-MDR1, apical to basolateral; for Papp B→A at 120 min, 30 nM: LLC-MDR1, basolateral to apical
[2] = system: H1/Cal HA (A/California/07/2009 (H1N1)); type: binding, influenza A virus
[3] = system: H5/Viet HA (A/Vietnam/1203/2004 (H5N1)); type: binding, influenza A virus
[4] = system: H1/NCa HA (A/New Caledonia/20/1999 (H1N1)); type: binding, influenza A virus
[5] = system: H1N1 A/Brisbane/59/2007 (H1/Bri) HA; type: biochemical, influenza A virus; conditions: pH 5.25
[6] = system: group 1 H1/Cal, H1/NCa, and H5/Viet HAs; type: binding, influenza A virus
[7] = system: H5/Viet virus (A/Vietnam/1203/2004 (H5N1))
[8] = LLC-PK1, pH 7.4, Papp BA, no inhibitor
[9] = LLC-PK1, pH 7.4, with elacridar (GF120918) 5 µM, Papp BA, + 5 µM GF120918

SMILES | IC50 [2] [nM] | IC50 [3] [nM] | IC50 [4] [nM] | IC50 [5] [nM] | other results
C[C@H]1O[C@@H](O[C@H]2[C@@H](O)C[C@H](O[C@H]3[C@@H](O)C[C@H](O[C@H]4CC[C@@]5(C)[C@H](CC[C@@H]6[C@@H]5C[C@@H](O)[C@]5(C)[C@@H](C7=CC(=O)OC7)CC[C@]65O)C4)O[C@@H]3C)O[C@@H]2C)C[C@H](O)[C@@H]1O [3H-Digoxin, Digoxin, reference compound] |  |  |  |  | Papp A→B at 120 min, 30 nM ([1]; LLC-PK1, pH 7.4): 2.45 ± 0.1 ×10⁻⁶ cm/s; efflux ratio at 120 min, 30 nM ([1]; LLC-PK1, pH 7.4, Efflux ratio BA/AB, no inhibitor): 0.94; Papp B→A at 120 min, 30 nM [1, 8]: 2.31 ± 0.15 ×10⁻⁶ cm/s; efflux ratio at 120 min, 30 nM ([1]; LLC-PK1, pH 7.4, with elacridar (GF120918) 5 µM, Efflux ratio BA/AB, + 5 µM GF120918): 0.9; Papp B→A at 120 min, 30 nM [1, 9]: 2.37 ± 0.08 ×10⁻⁶ cm/s; efflux ratio at 120 min, 30 nM (P-gp (MDR1); LLC-PK1, pH 7.4, Efflux ratio BA/AB, LLC-MDR1, no inhibitor): 22.6; Papp A→B at 120 min, 30 nM (P-gp (MDR1); LLC-PK1, pH 7.4, Papp AB, no inhibitor): 0.45 ± 0.08 ×10⁻⁶ cm/s; Papp B→A at 120 min, 30 nM (P-gp (MDR1); [8]): 10.3 ± 0.2 ×10⁻⁶ cm/s; efflux ratio at 120 min, 30 nM (P-gp (MDR1); LLC-PK1, pH 7.4, with elacridar (GF120918) 5 µM, Efflux ratio BA/AB, LLC-MDR1, + 5 µM GF120918): 0.91; Papp A→B at 120 min, 30 nM (P-gp (MDR1); LLC-PK1, pH 7.4, with elacridar (GF120918) 5 µM, Papp AB, + 5 µM GF120918): 2.98 ± 0.15 ×10⁻⁶ cm/s; Papp B→A at 120 min, 30 nM (P-gp (MDR1); [9]): 2.72 ± 0.05 ×10⁻⁶ cm/s
CSCC[C@@H]1NC(=O)CNC(=O)CNC(=O)[C@H](C)NC(=O)[C@H](C(C)C)NC(=O)CNC(=O)[C@H](CC(C)C)NC(=O)[C@@H]2CCCN2C(=O)[C@H](CC(=O)O)NC(=O)[C@H](CCC(=O)O)NC(=O)[C@H](Cc2ccc(O)cc2)NC(=O)[C@H](CC(C)C)NC(=O)[C@H](CO)NC(=O)[C@@H]2CCCN2C(=O)[C@H]2CCCN2C(=O)[C@H](C(C)C)NC(=O)CNC1=O [CP2] | 5130 | 55100 | 12700 ± 1640 | 21900 ± 3240 | 
CSCC[C@@H]1NC(=O)CNC(=O)CNC(=O)[C@H](C)NC(=O)[C@H](C(C)C)NC(=O)CNC(=O)[C@H](CC(C)C)NC(=O)[C@@H]2CCCN2C(=O)[C@H](CC(=O)O)NC(=O)[C@H](CCC(=O)O)NC(=O)[C@H](Cc2ccc(O)cc2)NC(=O)[C@H](CC(C)C)NC(=O)[C@H]2CCCN2C(=O)[C@@H]2CCCN2C(=O)CNC1=O [CP3] | 1710 ± 190 | 27100 ± 2790 | 2010 ± 540 | 2780 ± 260 | 
CSCC[C@@H]1NC(=O)CNC(=O)CNC(=O)[C@H](C)NC(=O)[C@H](C(C)C)NC(=O)CNC(=O)[C@H](CC(C)C)NC(=O)[C@@H]2CCCN2C(=O)[C@H](CC(=O)O)NC(=O)[C@H](CCC(=O)O)NC(=O)[C@H](Cc2ccc(O)cc2)NC(=O)[C@H](CC(C)C)NC(=O)[C@H](CO)NC(=O)[C@H](C(C)C)NC(=O)[C@H]2CCCN2C(=O)CNC(=O)[C@H](Cc2ccc(O)cc2)NC(=O)[C@H](C(C)C)NC(=O)CNC1=O [CP4] | 100 | 760 ± 86 | 75 ± 10 | 390 ± 40 | half-life / residence time t1/2 (range over HAs) [6]: 2 to 16 s; koff (range over HAs) [6]: 0.04–0.32; Neutralization activity against H5N1 virus (in words) [7]: complete abolishment of neutralization activity
CSCC[C@@H]1NC(=O)CNC(=O)CNC(=O)[C@H](C)NC(=O)[C@H](C(C)C)NC(=O)CNC(=O)[C@H](CC(C)C)NC(=O)[C@@H]2CCCN2C(=O)[C@H](CC(=O)O)NC(=O)[C@H](CCC(=O)O)NC(=O)[C@H](Cc2ccc(O)cc2)NC(=O)[C@H](CC(C)C)NC(=O)[C@H](CO)NC(=O)CNC(=O)[C@H]2CCCN2C(=O)[C@H](C(C)C)NC(=O)CNC1=O [CP5] | 4630 |  |  | 17000 ± 4580 | 
CSCC[C@@H]1NC(=O)CNC(=O)CNC(=O)[C@H](C)NC(=O)[C@H](C(C)C)NC(=O)CNC(=O)[C@H](CC(C)C)NC(=O)[C@@H]2CCCN2C(=O)[C@H](CC(=O)O)NC(=O)[C@H](CCC(=O)O)NC(=O)[C@H](Cc2ccc(O)cc2)NC(=O)[C@H](CC(C)C)NC(=O)[C@H]2CCCN2C(=O)CNC(=O)CNC1=O [CP6] | 1090 ± 200 | 13500 ± 2170 | 1470 ± 320 | 2740 ± 900 | 
CC[C@H]1NC(=O)[C@H](C(C)C)NC(=O)CNC(=O)C(CCCc2ccccc2)NC(=O)[C@@H]2CCCN2C(=O)[C@H](CC(=O)O)NC(=O)[C@H](CCC(=O)O)NC(=O)[C@H](Cc2ccc(O)cc2)NC(=O)[C@H](CC(C)C)NC(=O)[C@H]2CCCN2C(=O)CNC(=O)CNC(=O)[C@H](CCSC)NC(=O)CNC(=O)CNC1=O (stereo partly drawn) [CP7] (cyclo([dP]LYEDP[ξhhPhe]GV[dAbu]GGMGG)) | 360 ± 10 | 14800 ± 570 | 220 ± 10 | 3540 ± 310 | 
